Results reported in patent US9642354B2, “Method of freezing cells” (Cellulis, S.L., priority 2010, dated 2017).

What was measured:
BALB3T3 cells = assay: Cytotoxic test (MTT assay) on Balb3T3 fibroblasts thawed from two-layer frozen 96-well plate; assay type: cell-based; conditions: 24 h treatment started 24 h post-thawing, 5-Fluorouracil 20, 40, 80, 100 μg/ml, Tamoxifen 0.02, 1.25, 2.5, 5 μM
Procedure: (§1) Balb3T3 (ATCC, LCC Standards) fibroblasts and smooth muscle aortic cells (SMAC, freshly isolated from Sprague Dawley rats, Harlan Laboratories) primary cells were cultured in complete culture medium consisting of endotoxin-free DMEM (Sigma-Aldrich) supplemented with 10% FCS, 100 μg/ml penicillin and 100 IU/ml streptomycin (Sigma-Aldrich). […] The resulting cells were allowed to grow for twelve days prior to cryopresentation. Both cell types were grown in flasks until they were 80% confluent and then harvested. Harvesting took place by incubating cells in 5 ml of PBS with 0.05% EDTA for 2 minutes, and final detachment was achieved by incubation in 0.1% trypsin and 0.05% EDTA for another 5 minutes. Cells were centrifuged at 400×G for 5 minutes. Then, a total of 4.8 ml of a solution at 4° C. containing 50,000 cells/50 μl of freezing 80% DMEM, 10% FCS, 10% DMSO (AppliChem) medium was prepared (cell density determined by haemocytometer), forming the so-called freezing solution. Besides, 100 μl of complete culture medium was disposed in each cell of a 96-well plate and frozen down to −80° C. Once frozen, the plate is recovered and 50 μl/well of the said freezing solution were added on top each well containing 100 μl of complete culture medium already frozen. […] Twenty four hours later a MTT assay was performed and cytotoxicity was calculated according to the absorbance values. […]

Smac cells = assay: Cytotoxic test (MTT assay) on smooth muscle aortic cells (SMAC) thawed from two-layer frozen 96-well plate; assay type: cell-based, rat; conditions: 24 h treatment started 24 h post-thawing, 5-Fluorouracil 20, 40, 80, 100 μg/ml, Tamoxifen 0.02, 1.25, 2.5, 5 μM
Procedure: as §1

Row | Structure (SMILES) | cytotoxic response of BALB3T3 cells (BALB3T3 cells) | cytotoxic response of Smac cells (Smac cells)
1 | O=c1[nH]cc(F)c(=O)[nH]1 [5-Fluorouracil] | Concentration dependent cytotoxic response | Concentration dependent cytotoxic response
2 | CC/C(=C(\c1ccccc1)c1ccc(OCCN(C)C)cc1)c1ccccc1 [Tamoxifen] | Concentration dependent cytotoxic response | Concentration dependent cytotoxic response
